Test results reported in a compilation of properties of binary mixtures (doi:10.1021/je800965t).

Experiment: xn = mol fraction of the nth substance listed
Details: 101 kPa

CCCn1cc[n+](C)c1C.F[B-](F)(F)F + O
viscosity [mPa·s]
Details	x2 = 0	x2 = 0.0939	x2 = 0.1932	x2 = 0.2833	x2 = 0.3944	x2 = 0.4987	x2 = 0.5995	x2 = 0.6985	x2 = 0.8009	x2 = 0.8988
298.15 K	377	225	–	85.3	50.6	31.29	19.71	12.03	6.69	3.23
303.15 K	272	168	–	66.8	–	–	16.21	10.04	5.67	2.78
308.15 K	202	127.9	81.1	–	–	21.07	–	8.53	4.9	2.42
313.15 K	152	99.3	64.5	43.2	27.18	17.63	11.52	7.31	4.23	2.14
318.15 K	117.4	–	–	35.71	22.79	14.97	9.88	6.34	3.71	1.89
323.15 K	92.3	63.3	42.8	29.65	19.32	12.87	8.58	5.55	3.29	1.69
333.15 K	60.4	–	–	21.37	14.38	9.78	–	–	2.62	1.39
343.15 K	40.7	–	21.84	16.02	11.04	7.66	5.3	3.53	2.15	1.16

O + CCCn1cc[n+](C)c1C.F[B-](F)(F)F
x1 = 1
Details	viscosity [mPa·s]
298.15 K	0.89
303.15 K	0.8
313.15 K	0.65
318.15 K	0.6
323.15 K	0.55
333.15 K	0.47
343.15 K	0.4
